Test results published in PubChem BioAssay (NCI).
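Protocol summary: plate cells (96-well), add compound at 5 concentrations, incubate 48 h, interpolate endpoints linearly. GI50: concentration for 50% inhibition of growth. The concentration for full growth arrest is given as TGI.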

What was measured:
Test in all cases: DTP human tumour cell line panel, 48 h
SN12C renal = system: SN12C renal
MCF7 breast = system: MCF7 breast
CAKI-1 renal = system: CAKI-1 renal
K-562 leukemia = system: K-562 leukemia
HCC-2998 colon = system: HCC-2998 colon
SW-620 colon = system: SW-620 colon
COLO 205 colon = system: COLO 205 colon
A549 NSCLC = system: A549 NSCLC
NCI-H522 lung = system: NCI-H522 lung
OVCAR-5 ovarian = system: OVCAR-5 ovarian
HCT-15 colon = system: HCT-15 colon
T-47D breast = system: T-47D breast
MDA-MB-435 = system: MDA-MB-435
OVCAR-4 ovarian = system: OVCAR-4 ovarian
HCT-116 colon = system: HCT-116 colon
IGROV1 ovarian = system: IGROV1 ovarian
LOX IMVI melanoma = system: LOX IMVI melanoma
SK-OV-3 ovarian = system: SK-OV-3 ovarian
KM12 colon = system: KM12 colon
CCRF-CEM leukemia = system: CCRF-CEM leukemia
M14 melanoma = system: M14 melanoma
MOLT-4 leukemia = system: MOLT-4 leukemia
ACHN renal = system: ACHN renal
SR leukemia = system: SR leukemia
HL-60(TB) leukemia = system: HL-60(TB) leukemia
DU-145 prostate = system: DU-145 prostate
TK-10 renal = system: TK-10 renal
SK-MEL-5 melanoma = system: SK-MEL-5 melanoma
NCI-H23 lung = system: NCI-H23 lung
MDA-MB-231 breast = system: MDA-MB-231 breast
HOP-92 NSCLC = system: HOP-92 NSCLC
OVCAR-3 ovarian = system: OVCAR-3 ovarian
OVCAR-8 ovarian = system: OVCAR-8 ovarian
MALME-3M melanoma = system: MALME-3M melanoma
RPMI-8226 leukemia = system: RPMI-8226 leukemia
UACC-257 melanoma = system: UACC-257 melanoma
SNB-19 CNS = system: SNB-19 CNS
HT29 colon = system: HT29 colon
UO-31 renal = system: UO-31 renal
SK-MEL-2 melanoma = system: SK-MEL-2 melanoma
NCI-H460 lung = system: NCI-H460 lung
UACC-62 melanoma = system: UACC-62 melanoma
EKVX NSCLC = system: EKVX NSCLC
NCI/ADR-RES ovarian = system: NCI/ADR-RES ovarian
PC-3 prostate = system: PC-3 prostate
SF-295 CNS = system: SF-295 CNS
SF-268 CNS = system: SF-268 CNS
SK-MEL-28 melanoma = system: SK-MEL-28 melanoma
RXF 393 renal = system: RXF 393 renal
U251 CNS = system: U251 CNS
SNB-75 CNS = system: SNB-75 CNS
786-0 renal = system: 786-0 renal
HOP-62 NSCLC = system: HOP-62 NSCLC
A498 renal = system: A498 renal
HS 578T breast = system: HS 578T breast
NCI-H226 lung = system: NCI-H226 lung
SF-539 CNS = system: SF-539 CNS

`O=C1CSC2=NC3=C(CSC/C3=C\c3ccc(Cl)cc3)C(c3ccc(Cl)cc3)N12` (stereo not given) was tested, and the TGI (SN12C renal) was 39.2 µM, the TGI (MCF7 breast) was 87.2 µM and the TGI (CAKI-1 renal) was > 100 µM. The TGI (K-562 leukemia) was > 100 µM, the TGI (HCC-2998 colon) was 89.2 µM and the TGI (SW-620 colon) was 62.3 µM. For the same molecule, the TGI (COLO 205 colon) was > 100 µM, the TGI (A549 NSCLC) was > 100 µM and the TGI (NCI-H522 lung) was 36.3 µM. For the same molecule, the TGI (OVCAR-5 ovarian) was > 100 µM, the TGI (HCT-15 colon) was 80.2 µM and the TGI (T-47D breast) was > 100 µM. For the same molecule, the TGI (MDA-MB-435) was 66 µM, the TGI (OVCAR-4 ovarian) was 67.1 µM and the TGI (HCT-116 colon) was 29 µM. For the same molecule, the TGI (IGROV1 ovarian) was > 100 µM, the TGI (LOX IMVI melanoma) was 28.7 µM and the TGI (SK-OV-3 ovarian) was > 100 µM. The TGI (KM12 colon) was 79.1 µM, the TGI (CCRF-CEM leukemia) was > 100 µM and the TGI (M14 melanoma) was > 100 µM. The TGI (MOLT-4 leukemia) was 43.4 µM, the TGI (ACHN renal) was > 100 µM and the TGI (SR leukemia) was 56.3 µM. For the same molecule, the TGI (HL-60(TB) leukemia) was > 100 µM, the TGI (DU-145 prostate) was > 100 µM and the TGI (TK-10 renal) was > 100 µM. For the same molecule, the TGI (SK-MEL-5 melanoma) was 29.3 µM, the TGI (NCI-H23 lung) was > 100 µM and the TGI (MDA-MB-231 breast) was > 100 µM. It also gave a TGI (HOP-92 NSCLC) of 39.9 µM, a TGI (OVCAR-3 ovarian) of 67 µM and a TGI (OVCAR-8 ovarian) of 43.3 µM. For the same molecule, the TGI (MALME-3M melanoma) was > 100 µM, the TGI (RPMI-8226 leukemia) was > 100 µM and the TGI (UACC-257 melanoma) was 85.9 µM. For the same molecule, the TGI (SNB-19 CNS) was > 100 µM, the TGI (HT29 colon) was > 100 µM and the TGI (UO-31 renal) was 29.3 µM. For the same molecule, the TGI (SK-MEL-2 melanoma) was 52.3 µM, the TGI (NCI-H460 lung) was > 100 µM and the TGI (UACC-62 melanoma) was > 100 µM. The TGI (EKVX NSCLC) was > 100 µM, the TGI (NCI/ADR-RES ovarian) was > 100 µM and the TGI (PC-3 prostate) was > 100 µM. For the same molecule, the TGI (SF-295 CNS) was 47.6 µM, the TGI (SF-268 CNS) was > 100 µM and the TGI (SK-MEL-28 melanoma) was 81.9 µM.
`N#C/C(=C1C=C/C(=N/O)C(Cl)=C/1)c1ccc(Cl)cc1` gave a GI50 (RXF 393 renal) of 13.5 µM, a TGI (RXF 393 renal) of 36.1 µM and a GI50 (U251 CNS) of 5.7 µM. For the same molecule, the TGI (U251 CNS) was 20 µM, the GI50 (SN12C renal) was 2.99 µM and the TGI (SN12C renal) was 8.02 µM. For the same molecule, the GI50 (MCF7 breast) was 2.42 µM, the TGI (MCF7 breast) was 8.89 µM and the GI50 (CAKI-1 renal) was 3.63 µM. The TGI (CAKI-1 renal) was 14.1 µM, the GI50 (K-562 leukemia) was 1.16 µM and the TGI (K-562 leukemia) was 8.51 µM. The GI50 (HCC-2998 colon) was 19.1 µM, the TGI (HCC-2998 colon) was 38.4 µM and the GI50 (SW-620 colon) was 3.79 µM. For the same molecule, the TGI (SW-620 colon) was 15.1 µM, the GI50 (COLO 205 colon) was 12.2 µM and the TGI (COLO 205 colon) was 31.1 µM. It also gave a GI50 (A549 NSCLC) of 15.6 µM, a TGI (A549 NSCLC) of 46.4 µM and a GI50 (NCI-H522 lung) of 4.12 µM. For the same molecule, the TGI (NCI-H522 lung) was 15.7 µM, the GI50 (OVCAR-5 ovarian) was 12.7 µM and the TGI (OVCAR-5 ovarian) was 43.4 µM. The GI50 (HCT-15 colon) was 6.67 µM, the TGI (HCT-15 colon) was 77.7 µM and the GI50 (MDA-MB-435) was 1.96 µM. For the same molecule, the TGI (MDA-MB-435) was 8.45 µM, the GI50 (OVCAR-4 ovarian) was 17 µM and the TGI (OVCAR-4 ovarian) was 91.2 µM. The GI50 (HCT-116 colon) was 1.82 µM, the TGI (HCT-116 colon) was 4.39 µM and the GI50 (IGROV1 ovarian) was 2.66 µM. For the same molecule, the TGI (IGROV1 ovarian) was 7.89 µM, the GI50 (LOX IMVI melanoma) was 2.62 µM and the TGI (LOX IMVI melanoma) was 10.3 µM. The GI50 (SK-OV-3 ovarian) was 15.7 µM, the TGI (SK-OV-3 ovarian) was 41.6 µM and the GI50 (KM12 colon) was 0.721 µM. It also gave a TGI (KM12 colon) of 10.1 µM, a GI50 (CCRF-CEM leukemia) of 1.96 µM and a TGI (CCRF-CEM leukemia) of 6.93 µM. The GI50 (M14 melanoma) was 11.5 µM, the TGI (M14 melanoma) was 31.6 µM and the GI50 (MOLT-4 leukemia) was 2.35 µM. For the same molecule, the TGI (MOLT-4 leukemia) was 7.65 µM, the GI50 (ACHN renal) was 4.47 µM and the TGI (ACHN renal) was 18.4 µM. For the same molecule, the GI50 (SNB-75 CNS) was 3.78 µM, the TGI (SNB-75 CNS) was 18.4 µM and the GI50 (SR leukemia) was 1.36 µM. The TGI (SR leukemia) was 4.05 µM, the GI50 (786-0 renal) was 5.16 µM and the TGI (786-0 renal) was 19.1 µM. It also gave a GI50 (HL-60(TB) leukemia) of 1.24 µM, a TGI (HL-60(TB) leukemia) of 5 µM and a GI50 (HOP-62 NSCLC) of 4.29 µM. For the same molecule, the TGI (HOP-62 NSCLC) was 19.1 µM, the GI50 (DU-145 prostate) was 1.98 µM and the TGI (DU-145 prostate) was 4.1 µM. The GI50 (TK-10 renal) was 5.25 µM, the TGI (TK-10 renal) was 20.2 µM and the GI50 (SK-MEL-5 melanoma) was 16.5 µM. For the same molecule, the TGI (SK-MEL-5 melanoma) was 40.3 µM, the GI50 (NCI-H23 lung) was 25.9 µM and the TGI (NCI-H23 lung) was > 100 µM. For the same molecule, the GI50 (MDA-MB-231 breast) was 7.24 µM, the TGI (MDA-MB-231 breast) was 23.4 µM and the GI50 (HOP-92 NSCLC) was 7.92 µM. It also gave a TGI (HOP-92 NSCLC) of 51.1 µM, a GI50 (OVCAR-3 ovarian) of 3.97 µM and a TGI (OVCAR-3 ovarian) of 13.7 µM. It also gave a GI50 (A498 renal) of 3.07 µM, a TGI (A498 renal) of 20.4 µM and a GI50 (OVCAR-8 ovarian) of 12.3 µM. It also gave a TGI (OVCAR-8 ovarian) of 51.9 µM, a GI50 (MALME-3M melanoma) of 12.2 µM and a TGI (MALME-3M melanoma) of 29.3 µM. The GI50 (RPMI-8226 leukemia) was 1.61 µM, the TGI (RPMI-8226 leukemia) was 11.8 µM and the GI50 (UACC-257 melanoma) was 21.2 µM. The TGI (UACC-257 melanoma) was > 100 µM, the GI50 (SNB-19 CNS) was 18.4 µM and the TGI (SNB-19 CNS) was > 100 µM. For the same molecule, the GI50 (HT29 colon) was 5.46 µM, the TGI (HT29 colon) was 19.8 µM and the GI50 (UO-31 renal) was 3.33 µM. For the same molecule, the TGI (UO-31 renal) was 13 µM, the GI50 (SK-MEL-2 melanoma) was 7.8 µM and the TGI (SK-MEL-2 melanoma) was 24.8 µM. The GI50 (NCI-H460 lung) was 3.8 µM, the TGI (NCI-H460 lung) was 15.2 µM and the GI50 (UACC-62 melanoma) was 4.01 µM. The TGI (UACC-62 melanoma) was 18 µM, the GI50 (HS 578T breast) was 6.65 µM and the TGI (HS 578T breast) was 44.3 µM. For the same molecule, the GI50 (EKVX NSCLC) was 10.4 µM, the TGI (EKVX NSCLC) was 59.2 µM and the GI50 (NCI/ADR-RES ovarian) was 4.7 µM. For the same molecule, the TGI (NCI/ADR-RES ovarian) was 26.1 µM, the GI50 (NCI-H226 lung) was 7.59 µM and the TGI (NCI-H226 lung) was 27.3 µM. The GI50 (SF-539 CNS) was 3.16 µM, the TGI (SF-539 CNS) was 11.9 µM and the GI50 (PC-3 prostate) was 4.99 µM. For the same molecule, the TGI (PC-3 prostate) was 71.1 µM, the GI50 (SF-295 CNS) was 4.08 µM and the TGI (SF-295 CNS) was 14.4 µM. It also gave a GI50 (SF-268 CNS) of 3.66 µM, a TGI (SF-268 CNS) of 14.7 µM and a GI50 (SK-MEL-28 melanoma) of 30.1 µM. For the same molecule, the TGI (SK-MEL-28 melanoma) was > 100 µM.
